The source of these data is patent publication US11220548B2, “Treatment of C1013G/CXCR4-associated Waldenstrom's macroglobulinemia with an anti-CXCR4 antibody” (BRISTOL-MYERS SQUIBB COMPANY, priority 2013, dated 2022).

The test system of test [1] is WM cell lines (BCWM.1; MWCL.1). Put plainly: Transwell migration assay of WM cell lines. The class given is cell-based, human. The settings on record: increasing concentrations, 5 h. As for the experimental part:
FIGS. 14A and 14B: FIGS. 14A and 14B show the effect of BMS-936564 on migration of WM cells in vitro. WM cell lines (BCWM.1; MWCL.1) were tested for their migratory properties using a transwell migration assay. Cells were exposed to increasing concentrations of BMS-936564 and migration was determined after 5 h. The transwell migration assay was performed in presence of either primary WM BM-MSCs (FIG. 14A) or in presence of SDF-1α (FIG. 14B). In both cases, BMS-936564-dependent inhibition of WM cell migration was observed.

For test [2], the system named is C1013G/CXCR4-infected BCWM.1 cells. Put plainly: Adhesion of C1013G/CXCR4-infected cells to primary WM BM-MSCs. In kind it is cell-based, human. The settings on record: in the context of the BM microenvironment. As to the method: FIGS. 21A-21D: FIGS. 21A-21D show BMS-936564 targets C1013G/CXCR4-mutated cells in WM cells in the context of BM. C1013G/CXCR4-infected BCWM.1 cells were tested for their migratory properties using a transwell migration assay. Cells were exposed to increasing concentrations of BMS-936564 and migration was determined after 5 h. The transwell migration assay was performed in presence of either primary WM BM-MSCs (FIG. 21A) or SDF-1α (FIG. 21B). In both cases, BMS-936564-dependent inhibition of WM cell migration was observed. C1013G/CXCR4-infected BCWM.1 cells were treated with BMS-936564/for 4 h and subsequently tested for adhesion to primary WM BM-MSCs. […] C1013G/CXCR4-infected BCWM.1 cells were cultured with control media and with BMS-936564 for 48 h in the presence or absence of primary WM BM-MSCs. Cell proliferation was assessed using [^3H]-thymidine uptake assay (FIG. 21D). Bars indicate standard deviations. P indicates P value. All data represent mean (±sd) of triplicate experiments. […].

Test [3] deals with C1013G/CXCR4-mutated cells. Description: Western blot of survival and apoptosis-related proteins in C1013G/CXCR4-WM cells. The class given is cell-based, human. As to the method:
FIGS. 22A-22C: FIGS. 22A-22C show the effect of BMS-936564 on survival and apoptosis-related signal proteins in C1013G/CXCR4-WM cells. C1013G/CXCR4-mutated cells were cultured in presence or absence of BMS-936564 for 6 h, showing inhibition of phospho(p)-ERK, ERK, p-Akt, Akt, p-Src (FIG. 22A). Similarly, cells were exposed to the compound for 14 h, and induction of apoptosis-related pathways was observed (p-GSK3β, and p-β-catenin (FIG. 22B), and PARP and Caspase-9 (FIG. 22C)).
Protein lysates were obtained from WM cells by homogenization under nondenaturing conditions in lysis buffer (Cell Signaling Technology, Beverly, Mass.) supplemented with 5 mM NaF, 2 mM Na3VO4, 1 mM PMSF ([…]), 5 μg/mL leupeptine, and 5 μg/mL aprotinin. Whole-cell lysates were subjected to sodium dodecyl sulfate-polyacrylamide gel electrophoresis (SDS-PAGE) and transferred to polyvinylidene difluoride (PVDF) membrane (Bio-Rad Laboratories, Hercules, Calif.). The antibodies used for immunoblotting included: anti-phospho(p)-ERK, anti-ERK, anti-p-Akt, anti-Akt, anti-p-Src, anti-Src, anti-caspase-9, anti-PARP, anti-p-β-catenin, anti-β-catenin, anti-p-GSK3, anti-GAPDH and anti-α-tubulin antibodies (Cell Signaling, Danvers, Mass.).
Background: In western blotting, separated proteins are transferred to a membrane and probed.

Another test concerns BCWM.1-mCherry+ cells. Description: In vivo homing and tumor progression of wild-type WM cells. Also on record: species or system SCID/Bg mice. As for the experimental part: Serum was collected at the end of the study. […] Cell toxicity was performed by MTT. […] Bars indicate standard deviation.
Human serum IgM levels were determined by using a human IgM ELISA assay (ZeptoMetrix, Buffalo, N.Y.), according to the manufacturer's protocol.
SCID/Bg mice (n=5/group) were injected with BCWM.1 infected with either precision LentiORF/CXCR4/GFP (CXCR4^+)- or empty vector probe/RFP (control)-infected BCWM.1 cells. After three weeks, mice were euthanized and organs harvested. Hematoxylin-eosin staining, immunohistochemistry for human-CD20 and -CXCR4 were performed on explanted organs. Independent experiments were conducted to evaluate differences in survival (SCID/Bg mice, n=7/group). Similar studies were conducted using […]/CXCR4-mutated cells and control vector-infected cells (control cells). In vivo homing studies were performed using BCWM.1-mCherry^+ cells: cells were injected intravenously into […] mice and treated with either BMS-936564 or control antibody (10 mg/kg, intraperitoneally; 3-4 times per week for 3 weeks). The ability of BMS-936564 to modulate WM homing to BM, spleen and lymph nodes was evaluated ex vivo at the third week on explanted tissues, by using a fluorescence microscope (Nikon Eclipse 80i, Melville, N.Y.) (Roccaro et al., 2013).
The anti-WM activity of BMS-936564 was also tested in vivo using wild-type WM cells. BCWM.1-mCherry^+ cells were injected intravenously into SCID/Bg mice and treated mice with either BMS-936564 or control antibody.
As CXCR4 inhibition is thought to induce stem cell and tumor cell mobilization, it was hypothesized that BMS-936564 may also induce mobilization of WM cells leading to increased chemosensitivity to anti-WM agents. Accordingly, the effect of BMS-936564 in modulating tumor progression and WM cell dissemination to distant BM niches in vivo was evaluated as monotherapy or in combination with bortezomib.

Regarding “BMS-936564: fully human anti-CXCR4 monoclonal antibody; VH SEQ ID NO: 25, VL SEQ ID NO: 29”, in test [1], the “migration of WM cell lines towards SDF-1” value was “inhibit migration” and the “migration of WM cell lines towards primary WM BM-MSCs” value was “inhibit migration”. The “targeting adhesion of CXCR4-mutated cells” value in test [2] is recorded as “equally active”. Also, the “p-ERK, p-Akt, and p-Src in WM cells harboring the C1013G/CXCR4 mutation” value in test [3] (6 h) was “dose-dependent inhibition”. Besides, in test [3] (14 h), the “GSK3-β/β-catenin signaling in CXCR4-mutated WM cells” value is “up-regulation of p-GSK3-β/p-β-catenin and β-catenin degradation”; the “caspase-9- and PARP-cleavage in CXCR4-mutated WM cells” value is reported as “increased”. Moreover, the “tumor cells within the BM” value in the test with BCWM.1-mCherry+ cells (BMS-936564 10 mg/kg i.p., bortezomib 0.5 mg/kg i.p. x2/week, P<0.05) was “significant reduction”. The “serum IgM levels” value with BCWM.1-mCherry+ cells (human IgM ELISA at end of study, P<0.05) is “significantly reduced”. In addition, the “WM cell dissemination (BM, spleen and lymph nodes, immunofluorescence imaging ex vivo)” value with BCWM.1-mCherry+ cells (wild-type WM cells, 10 mg/kg intraperitoneally, vs control antibody) is on record as “inhibit WM cell dissemination”.
